Patent US20230255935A1, “ANTI-VIRAL COMPOUNDS AND METHODS FOR SCREENING SAME AND TREATING VIRAL INFECTIONS” (priority 2020, published 2023)
Where two headings read alike, the source gives them in different places.

What was measured:
[1] = molecular target: T1, full-length MERS-CoV N protein (Middle East respiratory syndrome-related coronavirus, UniProt K9N4V7)
SARS-CoV2 [2] = format: cell-based
[3] = molecular target: T1, full-length MERS-CoV N protein; remark: listed apart in the source
PEDV = format: cell-based, porcine epidemic diarrhea virus (PEDV)
SARS-CoV2 [4] = system: SARS-CoV2
MERS-CoV [5] = format: cell-based
MERS-CoV [6] = format: cell-based; remark: listed apart in the source
MERS-CoV N-NTD [7] = molecular target: T2, MERS-CoV N-NTD (Middle East respiratory syndrome-related coronavirus, UniProt K9N4V7)
MHV [8] = test: MHV-infected mice treated with PSX-01 (clinical score, body weight, liver histology); conditions: PSX-01 10 mM intraperitoneal
MERS-CoV N-NTD [9] = molecular target: T2, MERS-CoV N-NTD; remark: listed apart in the source
[10] = molecular target: T1, full-length MERS-CoV N protein; remark: listed apart in the source
MERS-CoV [11] = system: MERS-CoV
MHV [12] = format: cell-based, mouse hepatitis virus (MHV)
MERS-CoV [13] = format: cell-based; remark: listed apart in the source
MERS-CoV N protein = format: cell-based
MERS-CoV [14] = test: microbe, parasite or virus in culture; conditions: Middle East respiratory syndrome-related coronavirus, Vero C1008, 48 h
in vitro = conditions: African green monkey

CN(C)Cc1c[nH]c2ccc(OCc3ccccc3)cc12 [PSX-01, 5-benzyloxygramine]
N protein thermal denaturation [1]: delayed N protein thermal denaturation
viral titer (plaque assay) (SARS-CoV2 [2]): affected the viral titer
shift in the fluorescence spectrum of full-length N protein [3]: “blue shift” was observed
cytopathic effect (PEDV): significantly reduce the cytopathic effect
EC50 (SARS-CoV2 [4]): 35 µM
TI (CC50/EC50) (SARS-CoV2 [4]): 23
cytopathic effect (MERS-CoV [5]): significantly reduce the cytopathic effect
suppression of viral RNA replication (MERS-CoV [6]): 40%
viral RNA replication (MERS-CoV [6]): halted
N-NTD denaturation melting temperature (MERS-CoV N-NTD [7]): 45 °C
appearance (clinical score) (MHV [8]; 4 h before MHV 10^4 pfu, mice): prevent the appearance change caused by MHV
liver histology (H&E stain) (MHV [8]; MHV infection, day 7): rescue the increases of adipocytes and inflammation
binding to the N protein relative to the other leads (MERS-CoV N-NTD [9]): bound more tightly to the N protein than P1 or P2
shift in the intrinsic N-NTD fluorescence spectrum (MERS-CoV N-NTD [9]): comparatively larger blue shift
maximum dimension (Dmax) of N protein [10]: 230
EC50 (MERS-CoV [11]): 32.1 µM
TI (CC50/EC50) (MERS-CoV [11]): 25.1
cytopathic effect (MHV [12]): significantly reduce the cytopathic effect
extracellular viral titer (plaque assay) (MERS-CoV [13]): affected the viral titer
viral production (plaque assay) (MERS-CoV [13]): halted
N protein expression (MERS-CoV N protein): suppressed N protein expression in most cells
intracellular N protein distribution (MERS-CoV N protein): condensation of the intracellular N protein fluorescence signal

CCc1cccc2c3c([nH]c12)C(CC)(CC(=O)O)OCC3 (centres unmarked) [Compound P2, etodolac]
EC50 (MERS-CoV [14]): > 100 µM
CC50 (in vitro): 570 µM

O=C(OCc1ccccc1)N1c2ccccc2CC1CO (centres unmarked) [Compound P1, benzyl 2-(hydroxymethyl)-1-indolinecarboxylate]
EC50 (MERS-CoV [14]): > 100 µM
CC50 (in vitro): 460 µM
